Read-outs that look alike come from different tables or passages of the source.

One assay deals with scopolamine treated mice. Nature of the assay: Barnes maze, scopolamine induced deficits in learning and memory. The format is in vivo, C57BL/6 mice. The text has this: The animals are placed on an elevated, open, circular platform. The animal is exposed to intense light, or to a loud noise. In response to this intense stimulation the animal searches for shelter and enters one of the holes around the platform. Although the device was originally designed to be used with rats, soon it experienced modifications in order to be used with mice as well. Indeed, the device has been considered appropriate for this species because of its ability to find and escape through small holes.
Scopolamine, a muscarinic cholinergic antagonist, is known to cause impairments in Barnes maze testing. These impairments can be reversed by increasing cholinergic tone by the administration of cholinesterase inhibitors such as donepezil.
The scopolamine induced deficits in learning were evidenced by the increase in both total and primary errors, total and primary latency and total and primary path length. The Barnes mazes testing involves the parameters as set forth below.
Primary Path Length (cm): The distance moved by the subject before first contact with the escape hole. First contact is defined as the point of the nose touching the escape hole.
Total Path Length (cm): The distance moved by the subject before completing the task. Completion of task is defined as the entering of the subject into escape box. This ends the trial.
Primary Errors: The count of the number of errors made by the subject before first contact with the escape hole. Any contact of the nose point to a non-escape hole is considered as an error. Multiple contacts to the same non-escape hole are counted as multiple errors under this context. Total Errors: The count of the number of errors made by the subject throughout the trial. Any contact of the nose point to a non-escape hole is considered as an error. Multiple contacts to the same non-escape hole are counted as multiple errors under this context. Primary Latency (sec): The latency to the first contact with the escape hole by the nose point of the subject. Total Latency (sec): The latency for subject to complete the task. Completion of task is defined as the entering of the subject into escape box, which ends the trial. (i) Test Article
The test articles, propriety Polygonum minus extract and commercially available Ginkgo biloba extract (comparator extract) were used in this study. These extracts were prepared and stored for the project to the supplier's specifications. The doses of the extract chosen for the study were identified by the supplier A 30× stock suspension was prepared every week for each article. This was aliquot into batches which were then stored at 4° C. throughout the week. The stock suspension was diluted with ultra-pure water to working concentration every day before the dosing, and discarded after the dosing. Oral gavage needles were filled with the required amounts of suspension. Care was taken to ensure the even distribution of particles by vortex-mixing the suspensions before preparation in individual syringes, and also by syringe-mixing the diluted test article. The dose and time of scopolamine administration has been previously shown to produce deficits in spatial navigation tasks in rodents. The dose was increased from the initially reported 0.3 mg/kg to 0.5 mg/kg, as the higher dose would produce a more reliable deficit.
2-6 month-old male C57BL/6 mice (20-25 g), (n=12 to 14) were supplied by BioLASCO (Taiwan). They were housed in an IVC system (Allentown, USA) under a 12/12-h light/dark (200-300 Lux) cycle (lights on 07:00 h) with free access to food (Labdiet, formulated laboratory chow) and water and humidity keep between 50%-70%. The total animals used for each treatment are shown in the Table 13 below (subjects used for each arm in the experiment).
Chronic treatment via p.o. was conducted with the TEST COMPOUNDS (test dose 1 and 2) as per Table 12 and Table 12 above and CONTROL […] (vehicle and ginkgo) continuously for 19 days. Dosing was given daily at 1800 hr. […]

In assay [1] the test system is Collagenase from Clostridium histolyticum. The assay can be described thus: Collagenase inhibition bioassay in vitro (EnzChek gelatinase/collagenase kit). The format is biochemical. The protocol:
Solvents and reagents: EnzChek™gelatinase/Collagenase Assay kit (E12055, Molecular probes, Invitrogen, USA, Stored at −20° C.) containing: DQ gelatin from pigskin, Flourescein conjugate, 10× reaction buffer, 1,10 Phenanthroline monohydrate, Collagenase from Clostridium histolyticum.
2.5 mg of sample was prepared by dissolving it into 200 μl of DMSO and made up to 10 ml with 1× reaction buffer. Further dilutions were made as required. The enzymatic cleavage of DQ gelatin, Flourescein conjugate releases flourescent peptide. The increase in fluorescence is proportional to proteolytic activity. The digested product form DQ gelatin, Flourescein conjugate is excited with light at 490 nm and the emitted light at 520 nm is detected in a fluorometric plate reader.
Collagenase inhibition assay was carried out as per the kit insert of EnzChek™gelatinase/Collagenase Assay kit (E12055, Molecular probes, Invitrogen, USA). In brief, 80 μl of 1× reaction buffer/vehicle buffer/test solution/positive control of various concentrations, 100 μl of enzyme solution (0.1 units/ml), 20 μl of substrate solution (1 mg/ml) were added and mixed for 15 sec, incubated at 25° C. for 2 hours and read in a fluorescence microplate reader [Fluostar Optima, BMG Labtech, Germany] with the following parameters wherein it was excited at 490 nm, and the emission at 520 nm was recorded by the Costar 96 fluorometric plate reader.
A control reaction was carried out without the test samples respective sample blanking, control blanking and vehicle blanking were done (which contained all reagents except the enzymes). The percentage inhibition was calculated as follows:
[formula] where AFU=arbitrary fluorescence units and IC50 was calculated using log-probit analysis.

Where [2] appears, read: scopolamine 0.5 mg/kg i.p. vs vehicle control treated group.
The mark [3] stands for this setting: scopolamine 0.5 mg/kg i.p. vs vehicle treated control mice.
Setting [4] is: donepezil 1 mg/kg i.p. + scopolamine.

For the compound `CN1[C@@H]2C[C@@H](OC(=O)[C@H](CO)c3ccccc3)C[C@H]1[C@@H]1O[C@@H]12` [scopolamine], the “Primary and total latency, learning” value in the assay on scopolamine treated mice (scopolamine 0.5 mg/kg i.p. vs vehicle control) is given as “induces a deficit in learning”. For the same compound, in the assay with scopolamine treated mice (setting [2]), the “Primary path length, performance” value is on record as “decreased performance only on day two”; the “Total path length, days with decreased performance” value was “days one two and three”. In addition, in the assay on scopolamine treated mice (setting [3]), the “Primary errors, learning” value is recorded as “induced a deficit in learning on day two”; the “Total errors, days with deficit in learning” value was “on days one and two”. Further, the “Probe trial, preference for target segment (memory)” value with scopolamine treated mice (scopolamine 0.5 mg/kg i.p., day 5) is given as “induced a deficit in memory”.
`O.c1cnc2c(c1)ccc1cccnc12` [1,10-Phenanthroline monohydrate]: the “% inhibition” value in assay [1] stood at 40.81%; in assay [1] (12.5 μM) it was 0.00%; in assay [1] (25 Mm), 11.60%; in assay [1] (100 Mm), 88.00%. For the same compound, the IC50 in assay [1] (log-probit analysis, read-out: IC50 (95% confidence interval)) was 53.2 µM.
Regarding `COc1cc2c(cc1OC)C(=O)C(CC1CCN(Cc3ccccc3)CC1)C2` (stereo not shown) [donepezil], in the assay on scopolamine treated mice (setting [4]), the “Primary and total latency, scopolamine induced deficit” value is on record as “A similar result is obtained”; the “Scopolamine induced deficits in acquisition (learning) phase” value is reported as “attenuated”. For the same compound, the “Path length, scopolamine induced deficit” value in the assay with scopolamine treated mice (donepezil 1 mg/kg i.p. + scopolamine 0.5 mg/kg i.p.) is recorded as “did not show a scopolamine induced deficit”. Besides, the “Probe trial, time spent in target segment (memory deficit)” value in the assay on scopolamine treated mice (donepezil 1 mg/kg i.p. + scopolamine, day 5) is “reversed the scopolamine deficit”. The “Total errors, scopolamine induced deficit” value with scopolamine treated mice (donepezil 1 mg/kg i.p. + scopolamine, days one and two) is “deficits for total errors were not seen”.

Values taken from patent US9877993B2, “Composition for cognitive and cosmetic purposes” (BIOTROPICS MALAYSIA BERHAD, priority 2012, dated 2018).
